# Reference: ChEMBL document CHEMBL5303765, “Data for DCP probe BAY-7081” (2023)
# Key:
# [1] = target: Ephrin type-A receptor 7 (Homo sapiens) (UniProt Q15375); test: EPHA7 SGC Tm panel (DSF); settings: for ΔTm: Compound concentration 10.0 uM
# [2] = target: T1, Serine/threonine-protein kinase haspin (Homo sapiens) (UniProt Q8TF76); test: GSG2 SGC Tm panel (DSF); settings: for ΔTm: Compound concentration 10.0 uM
# T1 sequence (whole entry): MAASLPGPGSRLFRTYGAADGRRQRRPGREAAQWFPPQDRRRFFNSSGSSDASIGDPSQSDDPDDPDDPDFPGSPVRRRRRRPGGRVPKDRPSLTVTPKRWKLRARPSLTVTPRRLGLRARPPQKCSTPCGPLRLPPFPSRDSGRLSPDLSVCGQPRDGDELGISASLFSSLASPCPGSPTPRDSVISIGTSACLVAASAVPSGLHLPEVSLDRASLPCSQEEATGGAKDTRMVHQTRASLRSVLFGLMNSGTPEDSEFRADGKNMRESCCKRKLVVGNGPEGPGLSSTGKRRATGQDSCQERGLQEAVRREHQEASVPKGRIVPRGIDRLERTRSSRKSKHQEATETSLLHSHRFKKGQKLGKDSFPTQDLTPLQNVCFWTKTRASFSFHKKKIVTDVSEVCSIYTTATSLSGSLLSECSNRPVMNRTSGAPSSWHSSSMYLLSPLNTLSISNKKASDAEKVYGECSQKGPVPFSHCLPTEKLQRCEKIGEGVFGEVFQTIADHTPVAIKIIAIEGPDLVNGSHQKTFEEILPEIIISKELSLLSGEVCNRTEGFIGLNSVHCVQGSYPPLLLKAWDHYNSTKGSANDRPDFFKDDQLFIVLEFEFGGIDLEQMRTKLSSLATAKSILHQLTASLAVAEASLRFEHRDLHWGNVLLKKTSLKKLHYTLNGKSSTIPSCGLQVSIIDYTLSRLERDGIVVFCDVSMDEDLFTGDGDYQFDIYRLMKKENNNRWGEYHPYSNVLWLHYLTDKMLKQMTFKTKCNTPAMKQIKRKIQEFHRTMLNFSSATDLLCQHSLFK
# [3] = target: T2, Membrane-associated tyrosine- and threonine-specific cdc2-inhibitory kinase (Homo sapiens) (UniProt Q99640); test: PKMYT1 SGC Tm panel (DSF); settings: for ΔTm: Compound concentration 10.0 uM
# T2 sequence (whole entry): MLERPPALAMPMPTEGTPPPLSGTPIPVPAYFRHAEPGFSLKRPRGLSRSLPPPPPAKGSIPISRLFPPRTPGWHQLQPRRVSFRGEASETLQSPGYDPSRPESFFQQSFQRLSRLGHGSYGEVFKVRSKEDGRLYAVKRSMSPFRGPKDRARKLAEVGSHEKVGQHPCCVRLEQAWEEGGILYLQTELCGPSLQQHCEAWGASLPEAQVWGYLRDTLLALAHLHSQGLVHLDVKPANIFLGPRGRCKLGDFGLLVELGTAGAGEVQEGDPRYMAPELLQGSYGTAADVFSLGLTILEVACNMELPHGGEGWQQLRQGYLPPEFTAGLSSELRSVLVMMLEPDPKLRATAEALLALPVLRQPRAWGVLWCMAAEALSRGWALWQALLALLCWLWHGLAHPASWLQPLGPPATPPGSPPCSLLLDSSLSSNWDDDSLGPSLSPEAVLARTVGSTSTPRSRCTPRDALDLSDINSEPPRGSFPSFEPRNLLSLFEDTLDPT
# [4] = target: MAP kinase-activated protein kinase 2 (Homo sapiens) (UniProt P49137); test: MAPKAPK2 SGC Tm panel (DSF); settings: for ΔTm: Compound concentration 10.0 uM
# [5] = target: T3, Serine/threonine-protein kinase ULK3 (Homo sapiens) (UniProt Q6PHR2); test: ULK3 SGC Tm panel (DSF); settings: for ΔTm: Compound concentration 10.0 uM
# T3 sequence (whole entry): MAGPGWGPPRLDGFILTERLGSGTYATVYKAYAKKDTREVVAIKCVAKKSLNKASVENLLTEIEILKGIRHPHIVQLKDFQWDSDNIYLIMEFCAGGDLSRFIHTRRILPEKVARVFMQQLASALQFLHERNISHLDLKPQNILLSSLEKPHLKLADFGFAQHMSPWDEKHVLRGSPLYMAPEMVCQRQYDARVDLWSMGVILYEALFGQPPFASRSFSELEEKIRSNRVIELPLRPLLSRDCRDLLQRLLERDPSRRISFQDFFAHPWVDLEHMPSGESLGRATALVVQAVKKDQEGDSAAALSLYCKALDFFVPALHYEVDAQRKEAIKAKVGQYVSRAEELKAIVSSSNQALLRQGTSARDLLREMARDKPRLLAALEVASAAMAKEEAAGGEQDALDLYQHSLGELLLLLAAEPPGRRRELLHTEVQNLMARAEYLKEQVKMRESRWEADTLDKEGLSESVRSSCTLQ
# [6] = target: Serine/threonine-protein kinase OSR1 (Homo sapiens) (UniProt O95747); test: OSR1 SGC Tm panel (DSF); settings: for ΔTm: Compound concentration 10.0 uM
# [7] = target: Sigma non-opioid intracellular receptor 1 (Homo sapiens) (UniProt Q99720); settings: Compound concentration 10.0 uM
# [8] = target: Cyclin-dependent kinase 2 (Homo sapiens) (UniProt P24941); test: CDK2 SGC Tm panel (DSF); settings: for ΔTm: Compound concentration 10.0 uM
# [9] = target: STE20/SPS1-related proline-alanine-rich protein kinase (Homo sapiens) (UniProt Q9UEW8); test: STK39 SGC Tm panel (DSF); settings: for ΔTm: Compound concentration 10.0 uM
# [10] = target: 5-hydroxytryptamine receptor 2A (Homo sapiens) (UniProt P28223); settings: Compound concentration 10.0 uM
# [11] = target: Mitogen-activated protein kinase 8 (Homo sapiens) (UniProt P45983); test: MAPK8 SGC Tm panel (DSF); settings: for ΔTm: Compound concentration 10.0 uM
# Chain of Mitogen-activated protein kinase 8 (Homo sapiens) (P45983 whole entry): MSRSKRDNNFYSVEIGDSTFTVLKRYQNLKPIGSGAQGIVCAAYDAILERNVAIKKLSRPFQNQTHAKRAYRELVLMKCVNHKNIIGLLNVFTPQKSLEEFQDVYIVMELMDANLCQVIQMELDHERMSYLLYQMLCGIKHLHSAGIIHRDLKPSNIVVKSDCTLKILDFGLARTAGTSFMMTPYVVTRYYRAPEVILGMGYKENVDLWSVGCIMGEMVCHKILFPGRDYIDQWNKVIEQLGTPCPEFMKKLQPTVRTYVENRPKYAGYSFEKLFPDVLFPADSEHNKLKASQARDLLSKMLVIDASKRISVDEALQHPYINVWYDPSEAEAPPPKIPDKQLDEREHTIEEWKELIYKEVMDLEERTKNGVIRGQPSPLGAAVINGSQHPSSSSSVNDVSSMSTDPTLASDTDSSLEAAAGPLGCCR
# Chain of Serine/threonine-protein kinase OSR1 (Homo sapiens) (O95747 2-527 limits assumed): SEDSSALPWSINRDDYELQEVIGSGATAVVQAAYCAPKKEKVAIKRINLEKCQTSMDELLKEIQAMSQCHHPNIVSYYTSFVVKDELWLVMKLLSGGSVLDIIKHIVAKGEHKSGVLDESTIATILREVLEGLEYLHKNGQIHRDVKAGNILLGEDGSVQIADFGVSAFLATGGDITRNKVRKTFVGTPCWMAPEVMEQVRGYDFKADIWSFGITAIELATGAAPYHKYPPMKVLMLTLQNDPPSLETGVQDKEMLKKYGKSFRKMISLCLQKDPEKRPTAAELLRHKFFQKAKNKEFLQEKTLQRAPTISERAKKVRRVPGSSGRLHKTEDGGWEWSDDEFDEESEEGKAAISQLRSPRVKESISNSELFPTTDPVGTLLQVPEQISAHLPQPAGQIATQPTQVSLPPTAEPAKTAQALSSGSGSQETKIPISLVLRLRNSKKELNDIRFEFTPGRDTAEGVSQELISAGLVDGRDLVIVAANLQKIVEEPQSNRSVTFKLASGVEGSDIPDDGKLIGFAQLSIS
# Chain of Ephrin type-A receptor 7 (Homo sapiens) (Q15375 28-998 limits assumed): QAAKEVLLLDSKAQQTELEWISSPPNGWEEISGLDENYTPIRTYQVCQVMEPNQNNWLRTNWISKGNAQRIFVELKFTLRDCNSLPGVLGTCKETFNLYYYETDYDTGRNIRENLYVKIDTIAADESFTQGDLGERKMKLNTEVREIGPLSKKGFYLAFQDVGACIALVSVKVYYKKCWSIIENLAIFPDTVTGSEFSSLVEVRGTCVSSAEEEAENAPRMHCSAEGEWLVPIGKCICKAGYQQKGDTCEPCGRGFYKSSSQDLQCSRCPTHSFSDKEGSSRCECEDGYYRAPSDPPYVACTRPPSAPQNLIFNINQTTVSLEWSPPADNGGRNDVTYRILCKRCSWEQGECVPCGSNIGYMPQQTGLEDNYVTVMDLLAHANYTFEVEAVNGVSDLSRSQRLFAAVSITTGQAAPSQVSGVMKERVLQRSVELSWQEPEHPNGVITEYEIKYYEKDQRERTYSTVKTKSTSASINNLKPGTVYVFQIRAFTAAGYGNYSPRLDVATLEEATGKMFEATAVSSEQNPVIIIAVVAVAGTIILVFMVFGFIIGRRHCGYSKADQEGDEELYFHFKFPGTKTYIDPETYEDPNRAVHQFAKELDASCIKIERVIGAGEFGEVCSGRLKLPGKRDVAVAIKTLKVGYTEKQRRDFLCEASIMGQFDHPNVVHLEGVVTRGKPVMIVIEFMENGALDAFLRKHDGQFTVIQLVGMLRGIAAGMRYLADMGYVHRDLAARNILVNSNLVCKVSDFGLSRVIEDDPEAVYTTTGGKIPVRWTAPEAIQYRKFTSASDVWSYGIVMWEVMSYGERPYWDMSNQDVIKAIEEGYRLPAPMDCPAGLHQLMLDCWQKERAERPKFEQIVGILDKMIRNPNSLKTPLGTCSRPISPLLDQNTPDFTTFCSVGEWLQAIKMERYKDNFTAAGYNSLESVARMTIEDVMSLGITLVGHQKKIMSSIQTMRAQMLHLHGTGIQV
# Chain of 5-hydroxytryptamine receptor 2A (Homo sapiens) (P28223 whole entry): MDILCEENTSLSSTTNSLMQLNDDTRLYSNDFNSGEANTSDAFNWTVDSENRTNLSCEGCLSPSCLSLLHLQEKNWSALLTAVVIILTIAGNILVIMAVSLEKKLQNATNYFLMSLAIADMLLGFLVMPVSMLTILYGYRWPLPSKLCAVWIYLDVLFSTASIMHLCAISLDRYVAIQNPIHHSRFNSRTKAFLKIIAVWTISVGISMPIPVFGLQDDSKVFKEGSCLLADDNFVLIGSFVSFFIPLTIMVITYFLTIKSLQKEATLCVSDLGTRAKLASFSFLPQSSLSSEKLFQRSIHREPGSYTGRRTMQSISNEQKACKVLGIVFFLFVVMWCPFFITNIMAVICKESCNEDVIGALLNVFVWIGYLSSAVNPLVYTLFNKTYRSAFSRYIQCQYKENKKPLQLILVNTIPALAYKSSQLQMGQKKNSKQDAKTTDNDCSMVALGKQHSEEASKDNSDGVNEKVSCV
# Chain of Sigma non-opioid intracellular receptor 1 (Homo sapiens) (Q99720 whole entry): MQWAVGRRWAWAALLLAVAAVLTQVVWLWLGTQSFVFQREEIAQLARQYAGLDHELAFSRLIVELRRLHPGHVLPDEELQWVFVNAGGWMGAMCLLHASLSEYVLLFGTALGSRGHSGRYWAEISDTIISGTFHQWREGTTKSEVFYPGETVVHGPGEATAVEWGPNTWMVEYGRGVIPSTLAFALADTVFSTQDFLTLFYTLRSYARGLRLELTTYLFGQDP
# Chain of MAP kinase-activated protein kinase 2 (Homo sapiens) (P49137 whole entry, looked up): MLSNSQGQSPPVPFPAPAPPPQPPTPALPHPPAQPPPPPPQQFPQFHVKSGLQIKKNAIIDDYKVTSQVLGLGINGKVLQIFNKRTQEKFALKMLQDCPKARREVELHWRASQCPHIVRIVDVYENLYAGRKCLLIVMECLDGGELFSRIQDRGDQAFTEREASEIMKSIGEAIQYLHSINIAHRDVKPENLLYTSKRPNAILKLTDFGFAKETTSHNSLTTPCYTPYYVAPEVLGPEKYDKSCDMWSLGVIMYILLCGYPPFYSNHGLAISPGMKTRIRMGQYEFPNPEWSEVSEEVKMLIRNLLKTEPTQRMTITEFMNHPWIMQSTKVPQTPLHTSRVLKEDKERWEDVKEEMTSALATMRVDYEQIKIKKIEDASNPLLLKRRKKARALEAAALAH
SMILES,delta Tm Staurosporine positive control [1],ΔTm [1],delta Tm Staurosporine positive control [2],ΔTm [2],delta Tm Staurosporine positive control [3],ΔTm [3],delta Tm Staurosporine positive control [4],ΔTm [4],delta Tm Staurosporine positive control [5],ΔTm [5],delta Tm Staurosporine positive control [6],ΔTm [6],inhibition [7],delta Tm Staurosporine positive control [8],ΔTm [8],delta Tm Staurosporine positive control [9],ΔTm [9],inhibition [10],delta Tm Staurosporine positive control [11],ΔTm [11]
CCC[C@@H]1CNCc2c1[nH]c(=O)c(C#N)c2N1CCC2(CC1)CC2,12.1,-0.583,8.53,-0.64,0.0474,-0.384,3.96,-0.281,19.1,-0.0429,8.41,0.204,13.2%,14.3,-0.673,9.01,-0.455,-4.86%,7.45,-0.293
CCC[C@H]1CNCc2c1[nH]c(=O)c(C#N)c2N1CCC2(CC1)CC2,12.1,-0.592,8.53,-0.0501,0.0474,-0.47,3.96,-0.289,19.1,-0.0592,8.41,-0.0871,18.1%,14.3,-0.589,9.01,-0.273,-6.26%,7.45,-0.298
